Laboratory results as given in US10479814B2, “Adenosine receptor activation reagent and the uses of thereof” (Zhejiang Subtropical Crops Research Institute, priority 2014, dated 2019).
Entries after “also recorded” stand apart in the source; their conditions may differ.

Experiments:
Assay type in all cases: in vivo
[1] = test system: mouse spontaneous activity; experiment: mouse spontaneous activity (sedation)
Protocol: Male ICR mice were randomly divided into four groups, and adenosine A1R antagonist DPCPX was selected. The mice were divided into solvent group, HEA (15 mg/kg) group, DPCPX (4 mg/kg) and DPCPX+HEA (4 mg/kg+15 mg/kg) group; wherein in DPCPX+HEA group, the mice was peritonealelly injected with the antagonist, after 10 min the HEA was peritoneally injected. After 15 min of drug administration, the mice were put into a single opaque square spontaneous activity box (50 cm×50 cm×40 cm), and foot grating number within 5 min was recorded by video camera. Calculating on the basis of four limbs of the mouse entering the same lattice, as the activity index of the animal.

[2] = test system: mouse sleep induced by pentobarbital sodium; experiment: sleep induced by threshold dose of pentobarbital sodium
Protocol: Male ICR mice were randomly divided into four groups, respectively control group, positivediazepam (1 mg/kg) group, HEA (25 mg/kg) group and DPCPX+HEA (2 mg/kg+25 mg/kg) group. […]
Regarding the mouse righting reflex disappear for 1 min within 15 min as the hypnagogic criterion, sleep latency and sleep duration were recorded for the mice in each group.

[3] = test system: mouse kidney ischemia reperfusion; experiment: kidney ischemia reperfusion: kidney function test (Scr, BUN); conditions: for serum BUN level / serum Scr level: 24 h after ischemia reperfusion, vs IR group, ip pretreatment, HEA 5, 7.5, 10 mg/kg, DPCPX 1 mg/kg, DPCPX 1 mg/kg+HEA 7.5 mg/kg
Protocol: (§1) Male C57BL/6 mice 20-25 g, after one week of adaptive feeding to the animals, were randomly divided into eight groups: sham-operation group, IR group, HEA 5 mg/kg group, HEA 7 mg/kg group, HEA 10 mg/kg group, DPCPX (1 mg/kg) group, DPCPX (1 mg/kg)+HEA (5 mg/kg) group and DPCPX (1 mg/kg)+HEA (7.5 mg/kg) group. The mouse was weighed before operation, then peritoneally injected with pentobarbital sodium 50 mg/kg to anaesthetize the mouse, abdomen was opened by ventromedial incision, blunt dissection and the kidney pedicle was sufficiently exposed, renal ischemia was induced by clapping two side kidney pedicle with non-invasive bulldog clamp, the color of kidney change from bright red to purple black immediately, determination method of success of the experiment model can refer to the methods in literature 7 and 8. At time of 30 min of ischemia the bulldog clamp was loosened, the perfuse was restored, the color of kidney changed gradually from dark red to bright red, showing re perfusion was successful. The wound was stitched. The animals were freely fed water and food. In the sham-operation group, the mice only received operation of abdomen open, kidney pedicle and abdomen suture. The kidney IR mode were made for the mice in the remaining groups. In each drug group, before 15 minute of ischemia, the drug with corresponding concentration was speritoneally injected, in drug combination group, 15 minutes before ischemia, the drugs were given simultaneously. At 24 hours after Reperfussion, the mouse was again anaesthetized, obtaining the venous blood. Using full-automatic biochemical analysis systems (Dimension Xpand plus, from Siemens AG), the Scr (serum creatinine) and BUN (blood urea nitrogen) levels were detected respectively by chrysolepic acid rate method and enzymatic rate.

[4] = test system: mouse kidney ischemia reperfusion; experiment: kidney ischemia reperfusion: electron microscope observation of renal tubular epithelial cells
Protocol: as §1, with “The section” for “At 24 hours after Reperfussion, the mouse”, “observed using Transmission Electron Microscope ([…],” for “again anaesthetized, obtaining the venous blood. Using full-automatic biochemical analysis systems (Dimension Xpand plus,”, “Hitachi Co. limited). The observation was conducted in Electron Microscoper Room of Wenzhou Medical University.” for “Siemens AG), the Scr (serum creatinine) and BUN (blood urea nitrogen) levels were detected respectively by chrysolepic acid rate method and enzymatic rate.”

[5] = test system: mouse kidney ischemia reperfusion; experiment: kidney ischemia reperfusion: apoptosis by TUNEL method; conditions: vs IR group, DPCPX 1 mg/kg; for renal tubular epithelial cell apoptosis number (TUNEL×400): HEA treated group, DPCPX+HEA
Protocol: Male C57BL/6 mice 20-25 g, after one week of adaptive feeding to the animals, were randomly divided into eight groups: sham-operation group, IR group, HEA 5 mg/kg group, HEA 7 mg/kg group, HEA 10 mg/kg group, DPCPX (1 mg/kg) group, DPCPX (1 mg/kg)+HEA (5 mg/kg) group and DPCPX (1 mg/kg)+HEA (7.5 mg/kg) group.
The mouse was weighed before operation, then peritoneally injected with pentobarbital sodium 50 mg/kg to anaesthetize the mouse, abdomen was opened by ventromedial incision, blunt dissection and the kidney pedicle was sufficiently exposed, renal ischemia was induced by clapping two side kidney pedicle with non-invasive bulldog clamp, the color of kidney change from bright red to purple black immediately, determination method of success of the experiment model can refer to the methods in literature 7 and 8. At time of 30 min of ischemia the bulldog clamp was loosened, the perfuse was restored, the color of kidney changed gradually from dark red to bright red, showing re perfusion was successful. The wound was stitched. The animals were freely fed water and food.
In the sham-operation group, the mice only received operation of abdomen open, kidney pedicle and abdomen suture. The kidney IR mode were made for the mice in the remaining groups. In each drug group, before 15 minute of ischemia, the drug with corresponding concentration was speritoneally injected, in drug combination group, 15 minutes before ischemia, the drugs were given simultaneously.
Fetching a part of the stored kidney tissue, conventional paraffin embedded 4 μm of section. Operate according to the method of the specification in kit. […] Randomly selecting 10 400-fold visual fields, calculate apoptosis index AI %=positive cell number/total number of all cell in the visual field×100%.

## OCCNc1ncnc2c1ncn2[C@@H]1O[C@H](CO)[C@@H](O)[C@H]1O [HEA, N(6)-(2-hydroxyethyl)-adenosine]
[1]; normal mouse, HEA 15 mg/kg ip, 15 min after administration, vs solvent group
  spontaneous activity number within 5 min: significant; also recorded: significantly reduce spontaneous activity number of normal mouse within 5 min
[2]; HEA 25 mg/kg, sc, pentobarbital sodium 50 mg/kg
  sleep time induced by threshold dose of pentobarbital sodium: extended sleep time of the mice induced by threshold dose of pentobarbital sodium to a certain degree; also recorded: extends mouse sleep time induced by threshold dose of pentobarbital sodium to a certain degree
[2]; HEA 25 mg/kg, sc, pentobarbital sodium 50 mg/kg, vs control group
  sleep latency: no statistical difference in sleep latency; also recorded: no significant effect on sleep latency
[3]
  serum BUN level: significantly reduce
  serum Scr level: significantly reduce
[3]; by serum Scr and BUN level and kidney histopathological change
  protective effect to mouse kidney ischemia reperfusion impairment: has protective effect to mouse kidney ischemia reperfusion impairment
[4]; HEA 5 mg/kg group
  renal tubular epithelial cell ultrastructure (electron microscope): the entirety is improved compared with ischemia reperfusion group
[4]; HEA 7.5 mg/kg group
  renal tubular epithelial cell ultrastructure (electron microscope): most of the mitochondria are normal
[4]; HEA 10 mg/kg group
  renal tubular epithelial cell ultrastructure (electron microscope): mitochondria protection is more clear than the IR group
[5]; P<0.01, HEA 5, 7.5, 10 mg/kg, DPCPX 1 mg/kg+HEA 5 or 7.5 mg/kg
  TUNEL apoptosis index: significantly less than IR group
[5]
  renal tubular epithelial cell apoptosis number (TUNEL×400): apoptosis number is reduced

## CCCn1c(=O)c2[nH]c(C3CCCC3)nc2n(CCC)c1=O [DPCPX, reference compound]
[1]; DPCPX 4 mg/kg ip 10 min before HEA 15 mg/kg
  effect of DPCPX on sedation of the HEA: sedation of the HEA is significantly antagonized
[2]; DPCPX+HEA 2 mg/kg+25 mg/kg
  effect of adenosine receptor antagonist on hypnosis effect of the HEA: hypnosis effect of the HEA is significantly inhibited
[3]
  serum BUN level: significantly increase
  serum Scr level: significantly increase
[4]; DPCPX 1 mg/kg alone or DPCPX 1 mg/kg+HEA 5 or 7.5 mg/kg before ischemia
  renal tubular epithelial cell ultrastructure (electron microscope): essentially no mitochondria with complete structure
[5]
  renal tubular epithelial cell apoptosis number (TUNEL×400): significantly increased
